These results are taken from ChEMBL document CHEMBL3124754, “Delivery of a lactose derivative of endomorphin 1 to the brain via the olfactory epithelial pathway” (Bioorg Med Chem Lett, 2014).

Series [1] in a line: Drug uptake in Sprague-Dawley rat blood at 2 mg/kg administered via nasal cavity after 10 mins. Also noted: dose 2 mg/kg. The format is ADME, organism-based. To be noted: inhaled or intranasal, read-out: Drug uptake.
A short description of series [2]: Drug uptake in Sprague-Dawley rat olfactory bulb at 2 mg/kg administered via nasal cavity after 10 mins. The format is ADME, organism-based. To be noted: inhaled or intranasal, read-out: Drug uptake. Also noted: dose 2 mg/kg.
Series [3] has as its system Brain. Nature of the series: Drug uptake in rat brain homogenate at 18.2 uM after 30 mins by LC-MS/MS analysis. It is filed as ADME, tissue-based. The conditions noted are these: in vivo, 0.5 h.
A short description of series [4]: Drug uptake in Sprague-Dawley rat brain at 2 mg/kg administered via nasal cavity after 10 mins. The format is ADME, organism-based. Also noted: dose 2 mg/kg. The conditions noted are these: inhaled or intranasal, read-out: Drug uptake.
The test system of series [5] is Brain. Nature of the series: Drug uptake in rat brain homogenate at 6.5 uM after 30 mins by LC-MS/MS analysis. It is filed as ADME, tissue-based. The conditions noted are these: in vivo, 0.5 h.
Series [6] can be described thus: Half life in human plasma by RP-HPLC analysis. The format is ADME, cell-free.
The test system of the next series is Plasma. Briefly: Drug degradation in human plasma assessed as N-lactose endomorphin1 formation after 2 mins by RP-HPLC analysis. The format is ADME, cell-free.

What is called half-life is how long it takes for the measured level to halve. Read a low half-life as fast loss. For `NC(=O)[C@H](Cc1ccccc1)NC(=O)[C@H](Cc1c[nH]c2ccccc12)NC(=O)[C@@H]1CCCN1C(=O)[C@H](Cc1ccc(O)cc1)NC(=O)CCC(=O)N[C@@H]1O[C@H](CO)[C@@H](O[C@@H]2O[C@H](CO)[C@H](O)[C@H](O)[C@H]2O)[C@H](O)[C@H]1O`, the concentration at 10 min in series [1] stood at 1.6 nM; in series [2], 514 nM; in series [4], 4 nM. The Drug uptake with Brain [3] came to 18.12 µM; in the series with Brain [5], 3.4 µM. Moreover, in series [6], the half-life was 12.9 min.
Take `CC(=O)OC[C@H]1O[C@@H](O[C@H]2[C@H](OC(C)=O)[C@@H](OC(C)=O)[C@H](NC(=O)CCC(=O)N[C@@H](Cc3ccc(O)cc3)C(=O)N3CCC[C@H]3C(=O)N[C@@H](Cc3c[nH]c4ccccc34)C(=O)N[C@@H](Cc3ccccc3)C(N)=O)O[C@@H]2COC(C)=O)[C@H](OC(C)=O)[C@@H](OC(C)=O)[C@H]1OC(C)=O`: in the series on Plasma, the Stability entry is on record as “Unstable”.
Compound `NC(=O)[C@H](Cc1ccccc1)NC(=O)[C@H](Cc1c[nH]c2ccccc12)NC(=O)[C@@H]1CCCN1C(=O)[C@@H](N)Cc1ccc(O)cc1` [ENDOMORPHIN-1] registered a half-life in series [6] of 5.9 min.
